Our source for the IC50 values is patent US8541588B2, “Sulfonamide derivatives” (Pfizer Limited, priority 2009, dated 2013).

Some results are limits rather than exact numbers.

The target in the assay is T1, Nav1.7 (or SCN9A) channel; HEK cells stably transfected with hSCN9A (Homo sapiens, UniProt Q15858).
T1 construct: expressed in transfected cells
Briefly: Nav1.7 block, PatchXpress 7000 automated whole-cell voltage clamp, estimated IC50 (EIC50). It counts as cell-based. The following applies: estimated IC50; hSCN9A HEK cells, PatchXpress platform; Examples 815-1040.

T1 sequence (Q15858 whole entry): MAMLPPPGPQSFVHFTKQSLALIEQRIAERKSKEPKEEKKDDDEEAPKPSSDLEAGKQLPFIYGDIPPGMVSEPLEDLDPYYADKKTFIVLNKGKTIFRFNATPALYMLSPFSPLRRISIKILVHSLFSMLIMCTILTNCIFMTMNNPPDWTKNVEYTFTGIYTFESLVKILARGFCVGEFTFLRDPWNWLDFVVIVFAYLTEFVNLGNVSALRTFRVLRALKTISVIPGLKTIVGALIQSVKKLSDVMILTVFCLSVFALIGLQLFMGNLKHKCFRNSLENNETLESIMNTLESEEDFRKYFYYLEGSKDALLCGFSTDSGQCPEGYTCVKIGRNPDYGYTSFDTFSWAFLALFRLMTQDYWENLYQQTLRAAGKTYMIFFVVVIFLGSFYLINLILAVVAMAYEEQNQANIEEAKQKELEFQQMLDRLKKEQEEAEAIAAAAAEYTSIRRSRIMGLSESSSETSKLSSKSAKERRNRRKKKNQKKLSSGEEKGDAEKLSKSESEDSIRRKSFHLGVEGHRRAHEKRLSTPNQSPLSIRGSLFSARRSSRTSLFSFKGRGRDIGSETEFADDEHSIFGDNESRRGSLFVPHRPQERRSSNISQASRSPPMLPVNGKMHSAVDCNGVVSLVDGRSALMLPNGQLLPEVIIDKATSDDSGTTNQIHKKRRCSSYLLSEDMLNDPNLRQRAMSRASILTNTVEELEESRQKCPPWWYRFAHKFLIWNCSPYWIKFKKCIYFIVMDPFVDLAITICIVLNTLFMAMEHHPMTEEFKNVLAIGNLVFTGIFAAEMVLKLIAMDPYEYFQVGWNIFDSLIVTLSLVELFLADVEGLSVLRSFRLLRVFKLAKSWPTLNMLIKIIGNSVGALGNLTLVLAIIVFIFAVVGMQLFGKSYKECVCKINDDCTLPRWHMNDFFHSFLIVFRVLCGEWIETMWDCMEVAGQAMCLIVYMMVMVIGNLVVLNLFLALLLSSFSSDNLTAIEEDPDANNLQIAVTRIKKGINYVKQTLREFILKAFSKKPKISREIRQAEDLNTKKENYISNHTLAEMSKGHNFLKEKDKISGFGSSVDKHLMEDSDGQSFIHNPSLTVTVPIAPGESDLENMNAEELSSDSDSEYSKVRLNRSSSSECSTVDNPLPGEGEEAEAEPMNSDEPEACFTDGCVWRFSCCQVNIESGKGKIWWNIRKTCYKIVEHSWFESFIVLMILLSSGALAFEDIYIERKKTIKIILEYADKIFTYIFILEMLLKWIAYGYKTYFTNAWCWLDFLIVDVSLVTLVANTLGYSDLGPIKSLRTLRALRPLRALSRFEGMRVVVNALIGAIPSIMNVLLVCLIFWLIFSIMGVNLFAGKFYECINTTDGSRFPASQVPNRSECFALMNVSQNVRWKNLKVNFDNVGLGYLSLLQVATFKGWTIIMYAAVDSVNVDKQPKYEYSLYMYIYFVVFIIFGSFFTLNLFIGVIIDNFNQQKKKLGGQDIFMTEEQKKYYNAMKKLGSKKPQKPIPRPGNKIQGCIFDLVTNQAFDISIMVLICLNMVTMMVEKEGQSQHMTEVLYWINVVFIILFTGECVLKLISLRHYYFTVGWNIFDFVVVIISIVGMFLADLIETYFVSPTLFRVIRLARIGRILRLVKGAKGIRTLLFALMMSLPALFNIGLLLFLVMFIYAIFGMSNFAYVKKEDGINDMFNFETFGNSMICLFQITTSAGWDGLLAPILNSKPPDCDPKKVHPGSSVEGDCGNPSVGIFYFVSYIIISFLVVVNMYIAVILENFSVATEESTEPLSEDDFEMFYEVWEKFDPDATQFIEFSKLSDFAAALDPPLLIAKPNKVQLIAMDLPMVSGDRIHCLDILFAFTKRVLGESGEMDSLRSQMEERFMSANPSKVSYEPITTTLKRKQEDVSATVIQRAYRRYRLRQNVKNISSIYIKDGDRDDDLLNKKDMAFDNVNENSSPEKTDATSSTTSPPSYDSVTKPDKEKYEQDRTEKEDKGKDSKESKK

Turning to `N#Cc1cc(S(=O)(=O)Nc2ncns2)ccc1Oc1cc(Cl)c(Cl)cc1-c1ccnnc1` [Example 971, 3-cyano-4-(4,5-dichloro-2-pyridazin-4-ylphenoxy)-N-1,2,4-thiadiazol-5-ylbenzenesulfonamide], the IC50 was 8.5 nM.

For `Nc1cc(-c2cc(F)ccc2Oc2cc(F)c(S(=O)(=O)Nc3ccncn3)cc2Cl)ccn1` [Example 972, 4-[2-(2-aminopyridin-4-yl)-4-fluorophenoxy]-5-chloro-2-fluoro-N-pyrimidin-4-ylbenzenesulfonamide], the IC50 is 25 nM.

For `Nc1n[nH]cc1-c1cc(Cl)ccc1Oc1ccc(S(=O)(=O)Nc2ccncn2)cc1Cl` [Example 973, 4-[2-(3-amino-1H-pyrazol-4-yl)-4-chlorophenoxy]-3-chloro-N-pyrimidin-4-ylbenzenesulfonamide], the IC50 was 25 nM.

With `O=S(=O)(Nc1ncns1)c1cnc(Oc2ccc(C(F)(F)F)cc2-c2ccnnc2)c(Cl)c1` [Example 974, 5-chloro-6-[2-pyridazin-4-yl-4-(trifluoromethyl)phenoxy]-N-1,2,4-thiadiazol-5-ylpyridine-3-sulfonamide], the IC50 is 74 nM.

Turning to `CCN1CC(n2nccc2-c2cc(Cl)ccc2Oc2cc(F)c(S(=O)(=O)Nc3ncns3)cc2F)C1` [Example 975, 4-{4-chloro-2-[1-(1-ethylazetidin-3-yl)-1H-pyrazol-5-yl]phenoxy}-2,5-difluoro-N-1,2,4-thiadiazol-5-ylbenzenesulfonamide], the IC50 is 1.5 nM.

Take `O=S(=O)(Nc1ncns1)c1ccc(Oc2ccc(C(F)(F)F)cc2-c2ccnnc2)c(C(F)(F)F)c1` [Example 976, 4-[2-pyridazin-4-yl-4-(trifluoromethyl)phenoxy]-N-1,2,4-thiadiazol-5-yl-3-(trifluoromethyl)benzenesulfonamide]: the IC50 was 2.5 nM.

For the molecule `Cc1cc(S(=O)(=O)Nc2ncns2)c(F)cc1Oc1ccc(C(F)(F)F)cc1-c1ccnnc1` [Example 978, 2-fluoro-5-methyl-4-[2-pyridazin-4-yl-4-(trifluoromethyl)phenoxy]-N-1,2,4-thiadiazol-5-ylbenzenesulfonamide], the IC50 was 4.6 nM.

On to `N#Cc1cc(S(=O)(=O)Nc2ncns2)ccc1Oc1ccc(C(F)(F)F)cc1-c1ccc[n+]([O-])c1` [Example 979, 3-cyano-4-[2-(1-oxidopyridin-3-yl)-4-(trifluoromethyl)phenoxy]-N-1,2,4-thiadiazol-5-ylbenzenesulfonamide], for which the IC50 was 110 nM.

For `Cc1nn(C(C)(C)C)cc1-c1cc(Cl)ccc1Oc1cc(F)c(S(=O)(=O)Nc2nncs2)cc1Cl` [Example 982, 4-[2-(1-tert-butyl-3-methyl-1H-pyrazol-4-yl)-4-chlorophenoxy]-5-chloro-2-fluoro-N-1,3,4-thiadiazol-2-ylbenzenesulfonamide], the IC50 is more than 300 nM.

For the molecule `Cc1n[nH]cc1-c1ccccc1Oc1ccc(S(=O)(=O)Nc2nccs2)cc1C(N)=O` [Example 983, 2-[2-(3-methyl-1H-pyrazol-4-yl)phenoxy]-5-[(1,3-thiazol-2-ylamino)sulfonyl]benzamide], the IC50 was 2700 nM.

Take `CCOc1n[nH]cc1-c1cc(Cl)ccc1Oc1cc(F)c(S(=O)(=O)Nc2cscn2)cc1F` [Example 984, 4-[4-chloro-2-(3-ethoxy-1H-pyrazol-4-yl)phenoxy]-2,5-difluoro-N-1,3-thiazol-4-ylbenzenesulfonamide]: the IC50 is 560 nM.

Regarding `N#Cc1cc(S(=O)(=O)Nc2nccs2)ccc1Oc1ccccc1-c1cncnc1` [Example 985, 3-cyano-4-(2-pyrimidin-5-ylphenoxy)-N-1,3-thiazol-2-ylbenzenesulfonamide], the IC50 was 2300 nM.

`N#Cc1cc(S(=O)(=O)Nc2nccs2)ccc1Oc1ccc(-c2cnn(CC(F)(F)F)c2N)cc1` [Example 986, 4-{4-[5-amino-1-(2,2,2-trifluoroethyl)-1H-pyrazol-4-yl]phenoxy}-3-cyano-N-1,3-thiazol-2-ylbenzenesulfonamide]: the IC50 is more than 10000 nM.

`N#Cc1cc(S(=O)(=O)Nc2ncns2)ccc1Oc1ccc(C(F)(F)F)cc1-c1cccc(CN2CC[C@@H](O)C2)c1` [Example 987, 3-cyano-4-{[3′-{[(3R)-3-hydroxypyrrolidin-1-yl]methyl}-5-(trifluoromethyl)biphenyl-2-yl]oxy}-N-1,2,4-thiadiazol-5-ylbenzenesulfonamide]: the IC50 was 1.1 nM.

As for `N#Cc1cc(S(=O)(=O)Nc2ncns2)ccc1Oc1ccc(C(F)(F)F)cc1-c1cccc(CN2CCC2)c1` [Example 988, 4-{[3′-(azetidin-1-ylmethyl)-5-(trifluoromethyl)biphenyl-2-yl]oxy}-3-cyano-N-1,2,4-thiadiazol-5-ylbenzenesulfonamide], the concentration for half-maximal inhibition (IC50) was 0.7 nM.

Regarding `CC(=O)N1CC(n2nccc2-c2cc(F)ccc2Oc2cc(F)c(S(=O)(=O)Nc3cscn3)cc2Cl)C1` [Example 989, 4-{2-[1-(1-acetylazetidin-3-yl)-1H-pyrazol-5-yl]-4-fluorophenoxy}-5-chloro-2-fluoro-N-1,3-thiazol-4-ylbenzenesulfonamide], the IC50 was 950 nM.

Regarding `N#Cc1cc(S(=O)(=O)Nc2ncc(Cl)s2)ccc1Oc1ccc(Cl)cc1-c1ccon1` [Example 990, 4-(4-chloro-2-isoxazol-3-ylphenoxy)-N-(5-chloro-1,3-thiazol-2-yl)-3-cyanobenzenesulfonamide], the IC50 is 310 nM.

As for `N#Cc1cc(S(=O)(=O)Nc2ncc(Cl)s2)ccc1Oc1ccc(F)cc1-c1cccc(N)n1` [Example 991, 4-[2-(6-aminopyridin-2-yl)-4-fluorophenoxy]-N-(5-chloro-1,3-thiazol-2-yl)-3-cyanobenzenesulfonamide], the IC50 was more than 10 nM.

Take `N#Cc1cc(S(=O)(=O)Nc2ncc(Cl)s2)ccc1Oc1cc(F)ccc1-c1ccn[nH]1` [Example 992, N-(5-chloro-1,3-thiazol-2-yl)-3-cyano-4-[5-fluoro-2-(1H-pyrazol-5-yl)phenoxy]benzenesulfonamide]: the half-maximal inhibitory concentration (IC50) was 540 nM.

Take `N#Cc1cnn(-c2ccc(Oc3ccc(S(=O)(=O)Nc4nccs4)cc3C#N)cc2)c1` [Example 994, 3-cyano-4-[4-(4-cyano-1H-pyrazol-1-yl)phenoxy]-N-1,3-thiazol-2-ylbenzenesulfonamide]: the IC50 is 9500 nM.

As for `COC(=O)N1CC(c2cc(Cl)ccc2Oc2ccc(S(=O)(=O)Nc3nccs3)cc2C#N)C1` [Example 995, methyl 3-(5-chloro-2-{2-cyano-4-[(1,3-thiazol-2-ylamino)sulfonyl]phenoxy}phenyl)azetidine-1-carboxylate], the IC50 was 1300 nM.

As to `CCOC(=O)c1cnn(-c2ccc(Oc3ccc(S(=O)(=O)Nc4nccs4)cc3C#N)cc2)c1` [Example 996, ethyl 1-(4-{2-cyano-4-[(1,3-thiazol-2-ylamino)sulfonyl]phenoxy}phenyl)-1H-pyrazole-4-carboxylate], the IC50 was 760 nM.

Take `N#Cc1cc(S(=O)(=O)Nc2ncns2)ccc1Oc1ccc(Cl)cc1-c1ccc(C(=O)O)cc1` [Example 999, 5′-chloro-2′-{2-cyano-4-[(1,2,4-thiadiazol-5-ylamino)sulfonyl]phenoxy}biphenyl-4-carboxylic acid]: the IC50 is 3300 nM.

In the case of `N#Cc1cc(S(=O)(=O)Nc2ncns2)ccc1Oc1ccc(Cl)cc1-c1cccc(CC(=O)O)c1` [Example 1000, (5′-chloro-2′-{2-cyano-4-[(1,2,4-thiadiazol-5-ylamino)sulfonyl]phenoxy}biphenyl-3-yl)acetic acid], the IC50 was 130 nM.
